What was measured:
Format in all cases: biochemical
TYK2 = target: T1, TYK2 (Homo sapiens, UniProt P29597); assay: TYK2 enzyme inhibition test (LANCE method); details: 1 μM test compound; for inhibition at 1 µM: read-out: TYK2 enzyme inhibitory activity (%, 1 μM)
T1 construct: purchased Invitrogen
Method in brief: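 TR-FRET (LANCE) readout: after 1 h room-temperature kinase reaction, EDTA plus 4 nM Eu-labelled anti-phosphotyrosine antibody added, signal at 665 nm (340 nm excitation). Reaction combined TYK2, ULight-JAK1 substrate and ATP, prepared at 375 ng/mL, 300 nM and 30 μM before addition, in pH 7.5 HEPES/MgCl2 buffer; enzyme-free wells define full inhibition.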

JAK1 = target: T2, JAK1 (Homo sapiens, UniProt P23458); assay: JAK1 enzyme inhibition test (LANCE method); details: 1 μM test compound; for inhibition at 1 µM: read-out: JAK1 enzyme inhibitory activity (%, 1 μM)
T2 construct: purchased Invitrogen
Method in brief: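 Inhibition expressed against no-enzyme wells (100% inhibition), from time-resolved fluorescence at 665 nm after Eu-anti-phosphotyrosine antibody/EDTA detection. Kinase reaction ran 1 h at room temperature, pH 7.5 HEPES buffer, ULight-JAK1 substrate and ATP diluted to 300 nM and 150 μM before addition.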

JAK2 = target: T3, JAK2 (Homo sapiens, UniProt O60674); assay: JAK2 enzyme inhibition test (LANCE method); details: 1 μM test compound; for inhibition at 1 µM: read-out: JAK2 enzyme inhibitory activity (%, 1 μM)
T3 construct: purchased Invitrogen
Method in brief: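 TR-FRET (LANCE) read-out, ex 340/em 665 nm with 100 μs delay, after 1 hr room-temperature detection with europium anti-phosphotyrosine antibody and 20 mM EDTA. The preceding 1 hr kinase reaction combined JAK2, ULight-JAK1 substrate and ATP, added as 6 ng/mL, 300 nM and 45 μM solutions; enzyme-free wells defined 100% inhibition.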

JAK3 = target: T4, JAK3 (Homo sapiens, UniProt P52333); assay: JAK3 enzyme inhibition test (LANCE method); details: 1 μM test compound; for inhibition at 1 µM: read-out: JAK3 enzyme inhibitory activity (%, 1 μM)
T4 construct: purchased Invitrogen
T4 sequence (P52333 1-1124): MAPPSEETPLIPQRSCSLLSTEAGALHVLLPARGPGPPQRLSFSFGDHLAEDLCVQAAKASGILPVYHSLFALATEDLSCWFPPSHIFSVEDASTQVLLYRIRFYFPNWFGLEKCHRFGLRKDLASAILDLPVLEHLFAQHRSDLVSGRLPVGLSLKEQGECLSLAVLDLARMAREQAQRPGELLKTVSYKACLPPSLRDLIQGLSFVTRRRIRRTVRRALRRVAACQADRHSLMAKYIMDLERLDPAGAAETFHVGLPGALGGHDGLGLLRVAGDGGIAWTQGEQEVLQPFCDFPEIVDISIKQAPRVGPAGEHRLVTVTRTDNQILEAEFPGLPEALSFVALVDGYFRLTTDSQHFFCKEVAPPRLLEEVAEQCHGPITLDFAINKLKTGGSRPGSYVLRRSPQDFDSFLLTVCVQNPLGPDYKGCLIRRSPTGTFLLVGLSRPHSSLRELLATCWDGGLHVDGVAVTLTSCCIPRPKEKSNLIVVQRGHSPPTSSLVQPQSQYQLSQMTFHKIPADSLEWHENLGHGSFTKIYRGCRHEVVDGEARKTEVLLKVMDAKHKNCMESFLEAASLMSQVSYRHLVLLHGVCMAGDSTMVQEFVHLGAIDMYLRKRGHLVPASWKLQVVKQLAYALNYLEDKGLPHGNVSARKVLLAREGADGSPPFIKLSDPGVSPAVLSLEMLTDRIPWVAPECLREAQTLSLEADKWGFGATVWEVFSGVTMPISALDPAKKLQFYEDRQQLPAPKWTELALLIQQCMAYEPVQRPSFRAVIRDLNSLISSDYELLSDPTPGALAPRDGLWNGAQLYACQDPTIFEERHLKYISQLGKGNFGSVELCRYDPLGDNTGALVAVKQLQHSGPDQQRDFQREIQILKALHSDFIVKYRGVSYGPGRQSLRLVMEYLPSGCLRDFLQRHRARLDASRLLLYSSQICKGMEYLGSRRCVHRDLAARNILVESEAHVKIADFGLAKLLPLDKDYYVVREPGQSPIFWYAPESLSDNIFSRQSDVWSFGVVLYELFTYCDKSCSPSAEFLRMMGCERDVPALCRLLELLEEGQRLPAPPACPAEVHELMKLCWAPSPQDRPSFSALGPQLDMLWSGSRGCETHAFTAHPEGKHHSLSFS
Method in brief: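 TR-FRET (LANCE) read: 1 h room-temperature reaction, EDTA quench, Eu-anti-phosphotyrosine antibody, emission 665 nm after 340 nm excitation. Added solutions held 12 ng/mL JAK3, 300 nM ULight-JAK1 substrate and 15 μM ATP (pH 7.5 HEPES). Activity expressed against no-enzyme wells defined as full inhibition.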

T1 sequence (P29597 whole entry): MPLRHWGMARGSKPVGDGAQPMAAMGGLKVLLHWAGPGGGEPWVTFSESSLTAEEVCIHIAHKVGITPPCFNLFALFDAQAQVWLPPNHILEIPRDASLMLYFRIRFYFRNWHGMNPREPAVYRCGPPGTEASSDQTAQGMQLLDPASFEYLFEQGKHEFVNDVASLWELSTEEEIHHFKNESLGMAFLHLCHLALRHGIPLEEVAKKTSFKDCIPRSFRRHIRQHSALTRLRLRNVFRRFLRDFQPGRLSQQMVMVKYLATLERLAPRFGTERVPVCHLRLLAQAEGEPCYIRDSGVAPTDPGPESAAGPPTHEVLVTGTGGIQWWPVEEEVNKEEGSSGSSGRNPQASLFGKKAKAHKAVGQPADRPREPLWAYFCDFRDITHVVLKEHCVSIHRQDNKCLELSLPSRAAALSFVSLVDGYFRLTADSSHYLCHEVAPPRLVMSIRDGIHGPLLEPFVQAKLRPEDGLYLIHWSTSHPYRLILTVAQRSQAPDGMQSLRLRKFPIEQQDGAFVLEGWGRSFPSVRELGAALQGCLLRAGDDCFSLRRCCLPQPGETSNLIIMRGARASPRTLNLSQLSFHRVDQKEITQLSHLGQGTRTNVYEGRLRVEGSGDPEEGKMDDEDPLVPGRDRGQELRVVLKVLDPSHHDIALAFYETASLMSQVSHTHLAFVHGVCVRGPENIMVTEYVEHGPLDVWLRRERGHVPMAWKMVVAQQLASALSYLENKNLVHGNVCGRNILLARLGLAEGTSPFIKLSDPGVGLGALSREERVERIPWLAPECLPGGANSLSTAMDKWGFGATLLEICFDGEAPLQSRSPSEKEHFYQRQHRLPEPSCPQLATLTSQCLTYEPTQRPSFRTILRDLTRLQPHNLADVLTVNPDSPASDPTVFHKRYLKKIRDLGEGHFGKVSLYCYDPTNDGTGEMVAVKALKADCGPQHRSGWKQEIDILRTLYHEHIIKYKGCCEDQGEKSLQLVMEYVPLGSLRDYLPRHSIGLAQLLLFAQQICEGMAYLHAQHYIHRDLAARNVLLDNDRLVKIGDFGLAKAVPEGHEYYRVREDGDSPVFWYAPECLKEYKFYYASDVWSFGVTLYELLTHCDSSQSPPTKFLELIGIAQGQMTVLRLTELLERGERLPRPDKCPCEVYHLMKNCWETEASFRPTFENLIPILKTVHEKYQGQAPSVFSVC
T2 sequence (P23458 whole entry): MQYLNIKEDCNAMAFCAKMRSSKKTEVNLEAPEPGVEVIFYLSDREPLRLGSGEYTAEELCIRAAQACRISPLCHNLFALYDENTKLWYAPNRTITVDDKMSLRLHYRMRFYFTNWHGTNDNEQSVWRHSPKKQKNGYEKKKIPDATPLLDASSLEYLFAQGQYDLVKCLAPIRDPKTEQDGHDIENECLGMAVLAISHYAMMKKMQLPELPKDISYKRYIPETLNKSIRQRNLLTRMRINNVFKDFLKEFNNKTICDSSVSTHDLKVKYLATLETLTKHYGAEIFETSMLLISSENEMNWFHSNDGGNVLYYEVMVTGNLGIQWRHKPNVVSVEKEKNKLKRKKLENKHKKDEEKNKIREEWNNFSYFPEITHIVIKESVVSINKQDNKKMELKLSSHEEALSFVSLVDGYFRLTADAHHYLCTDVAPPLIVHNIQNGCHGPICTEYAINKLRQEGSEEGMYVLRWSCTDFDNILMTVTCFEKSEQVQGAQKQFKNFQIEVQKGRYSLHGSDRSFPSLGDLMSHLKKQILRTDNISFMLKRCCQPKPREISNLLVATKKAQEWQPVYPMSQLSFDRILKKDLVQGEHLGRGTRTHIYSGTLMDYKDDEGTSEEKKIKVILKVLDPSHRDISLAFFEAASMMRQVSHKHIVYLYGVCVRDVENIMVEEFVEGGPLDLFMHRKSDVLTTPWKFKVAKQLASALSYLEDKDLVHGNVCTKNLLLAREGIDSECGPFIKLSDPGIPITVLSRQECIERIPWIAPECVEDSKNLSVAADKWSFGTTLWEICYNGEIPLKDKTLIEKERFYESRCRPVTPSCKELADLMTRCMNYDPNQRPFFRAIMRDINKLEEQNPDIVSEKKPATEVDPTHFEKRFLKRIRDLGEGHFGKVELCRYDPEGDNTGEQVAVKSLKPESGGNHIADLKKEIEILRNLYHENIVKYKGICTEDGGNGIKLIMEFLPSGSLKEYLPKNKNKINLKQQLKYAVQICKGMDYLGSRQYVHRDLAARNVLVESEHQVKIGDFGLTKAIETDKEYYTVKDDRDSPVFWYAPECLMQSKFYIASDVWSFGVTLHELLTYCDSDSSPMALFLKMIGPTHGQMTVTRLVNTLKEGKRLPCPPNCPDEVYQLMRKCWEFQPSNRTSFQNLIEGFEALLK
T3 sequence (O60674 whole entry): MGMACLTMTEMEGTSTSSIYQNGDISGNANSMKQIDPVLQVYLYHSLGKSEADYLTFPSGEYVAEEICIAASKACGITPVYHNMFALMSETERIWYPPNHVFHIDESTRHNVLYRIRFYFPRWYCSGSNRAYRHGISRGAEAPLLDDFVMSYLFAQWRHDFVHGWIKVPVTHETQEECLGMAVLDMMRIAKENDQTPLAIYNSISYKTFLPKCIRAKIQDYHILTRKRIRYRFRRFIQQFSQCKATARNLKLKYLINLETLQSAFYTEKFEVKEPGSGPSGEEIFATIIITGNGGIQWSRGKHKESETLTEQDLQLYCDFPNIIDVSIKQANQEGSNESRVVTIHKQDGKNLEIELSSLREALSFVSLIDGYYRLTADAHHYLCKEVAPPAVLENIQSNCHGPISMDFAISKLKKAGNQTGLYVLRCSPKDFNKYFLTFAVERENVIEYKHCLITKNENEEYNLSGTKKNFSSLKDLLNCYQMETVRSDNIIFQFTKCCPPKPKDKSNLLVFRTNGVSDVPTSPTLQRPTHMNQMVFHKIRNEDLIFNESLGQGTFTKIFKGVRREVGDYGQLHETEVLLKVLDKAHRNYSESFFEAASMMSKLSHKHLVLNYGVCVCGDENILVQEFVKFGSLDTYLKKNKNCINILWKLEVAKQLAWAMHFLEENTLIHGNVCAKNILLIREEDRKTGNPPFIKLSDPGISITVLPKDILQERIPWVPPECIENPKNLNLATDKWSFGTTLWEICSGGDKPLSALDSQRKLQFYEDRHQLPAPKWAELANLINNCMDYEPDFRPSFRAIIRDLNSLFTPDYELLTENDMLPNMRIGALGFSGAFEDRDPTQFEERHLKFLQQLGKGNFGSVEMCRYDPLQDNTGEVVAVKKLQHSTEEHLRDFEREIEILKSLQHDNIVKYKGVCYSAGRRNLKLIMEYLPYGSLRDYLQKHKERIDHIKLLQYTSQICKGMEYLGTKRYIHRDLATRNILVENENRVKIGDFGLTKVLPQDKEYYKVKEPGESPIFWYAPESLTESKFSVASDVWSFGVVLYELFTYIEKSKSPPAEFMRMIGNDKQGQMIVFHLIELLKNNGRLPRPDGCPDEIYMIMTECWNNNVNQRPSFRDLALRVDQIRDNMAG

TYK2 enzyme inhibitory activity (%, 1 μM) (TYK2) [%] | JAK1 enzyme inhibitory activity (%, 1 μM) (JAK1) [%] | JAK2 enzyme inhibitory activity (%, 1 μM) (JAK2) [%] | JAK3 enzyme inhibitory activity (%, 1 μM) (JAK3) [%] | inhibition at 1 µM (TYK2) [%] | inhibition at 1 µM (JAK1) [%] | inhibition at 1 µM (JAK2) [%] | inhibition at 1 µM (JAK3) [%] | Compound
99 | 96 | 99 | 99 |  |  |  |  | COC1(c2cc(-c3cn(C(C#N)C(C)C)c(=O)c4c(N)n[nH]c34)nn2C)CCC(F)(F)CC1 (stereo not drawn) [Example 138, 2-(3-amino-7-(5-(4,4-difluoro-1-methoxycyclohexyl)-1-methyl-1H-pyrazol-3-yl)-4-oxo-1,4-dihydro-5H-pyrazolo[4,3-c]pyridin-5-yl)-3-methylbutanenitrile]
93 | 32 | 80 | 66 |  |  |  |  | COC1(c2cc(-c3cn(C(C#N)C(C)C)c(=O)c4c(N)n[nH]c34)nn2C)CCC(F)(F)CC1 (stereo not drawn) [Example 139, 2-(3-amino-7-(5-(4,4-difluoro-1-methoxycyclohexyl)-1-methyl-1H-pyrazol-3-yl)-4-oxo-1,4-dihydro-5H-pyrazolo[4,3-c]pyridin-5-yl)-3-methylbutanenitrile]
 |  |  |  | 99 | 98 | 99 | 100 | CN(C)[C@H]1CCN(c2cc(-c3cn(-c4c(F)cccc4F)c(=O)c4c(N)n[nH]c34)nn2C)C1 [Example 140, 3-amino-5-(2,6-difluorophenyl)-7-(5-((3S)-3-(dimethylamino)pyrrolidin-1-yl)-1-methyl-1H-pyrazol-3-yl)-1,5-dihydro-4H-pyrazolo[4,3-c]pyridin-4-one]
 |  |  |  | 100 | 98 | 99 | 100 | Cn1nc(-c2cn(-c3c(F)cccc3F)c(=O)c3c(N)n[nH]c23)cc1N1CCC(C#N)CC1 [Example 141, 1-(3-(3-amino-5-(2,6-difluorophenyl)-4-oxo-4,5-dihydro-1H-pyrazolo[4,3-c]pyridin-7-yl)-1-methyl-1H-pyrazol-5-yl)piperidine-4-carbonitrile]
 |  |  |  | 98 | 98 | 98 | 99 | Cn1nc(-c2cn(-c3c(F)cccc3F)c(=O)c3c(N)n[nH]c23)cc1N1CCC[C@@H]1CC#N [Example 142, ((2R)-1-(3-(3-amino-5-(2,6-difluorophenyl)-4-oxo-4,5-dihydro-1H-pyrazolo[4,3-c]pyridin-7-yl)-1-methyl-1H-pyrazol-5-yl)pyrrolidin-2-yl)acetonitrile]
 |  |  |  | 100 | 99 | 98 | 99 | Cn1nc(-c2cn(-c3c(F)cccc3F)c(=O)c3c(N)n[nH]c23)cc1N1CCOCC1 [Example 143, 3-amino-5-(2,6-difluorophenyl)-7-(1-methyl-5-(morpholin-4-yl)-1H-pyrazol-3-yl)-1,5-dihydro-4H-pyrazolo[4,3-c]pyridin-4-one]
 |  |  |  | 100 | 92 | 98 | 99 | COC1(c2cc(-c3cn(-c4c(F)cccc4F)c(=O)c4c(N)n[nH]c34)nn2C)CN(S(=O)(=O)C(C)C)C1 [Example 144, 3-amino-5-(2,6-difluorophenyl)-7-(5-(1-(isopropylsulfonyl)-3-methoxyazetidin-3-yl)-1-methyl-1H-pyrazol-3-yl)-1,5-dihydro-4H-pyrazolo[4,3-c]pyridin-4-one]
 |  |  |  | 100 | 89 | 98 | 99 | CN(C)C[C@H]1CCCN1c1cc(-c2cn(C(C3CC3)C3CC3)c(=O)c3c(N)n[nH]c23)nn1C [Example 145, 3-amino-5-(dicyclopropylmethyl)-7-(5-((2R)-2-((dimethylamino)methyl)pyrrolidin-1-yl)-1-methyl-1H-pyrazol-3-yl)-1,5-dihydro-4H-pyrazolo[4,3-c]pyridin-4-one]
 |  |  |  | 110 | 101 | 101 | 103 | Cn1nc(-c2cn(C(C3CC3)C3CC3)c(=O)c3c(N)n[nH]c23)cc1C1=CCCCC1 [Example 147, 3-amino-7-(5-(cyclohex-1-en-1-yl)-1-methyl-1H-pyrazol-3-yl)-5-(dicyclopropylmethyl)-1,5-dihydro-4H-pyrazolo[4,3-c]pyridin-4-one]
 |  |  |  | 110 | 101 | 101 | 104 | Cn1nc(-c2cn(C(C3CC3)C3CC3)c(=O)c3c(N)n[nH]c23)cc1C1CCCCC1 [Example 148, 3-amino-7-(5-cyclohexyl-1-methyl-1H-pyrazol-3-yl)-5-(dicyclopropylmethyl)-1,5-dihydro-4H-pyrazolo[4,3-c]pyridin-4-one]
 |  |  |  | 106 | 100 | 99 | 101 | CN1CCN(c2cc(-c3cn(C(C4CC4)C4CC4)c(=O)c4c(N)n[nH]c34)nn2C)CC1 [Example 149, 3-amino-5-(dicyclopropylmethyl)-7-(1-methyl-5-(4-methylpiperazin-1-yl)-1H-pyrazol-3-yl)-1,5-dihydro-4H-pyrazolo[4,3-c]pyridin-4-one]
 |  |  |  | 102 | 98 | 100 | 101 | CN1CCCN(c2cc(-c3cn(C(C4CC4)C4CC4)c(=O)c4c(N)n[nH]c34)nn2C)CC1 [Example 150, 3-amino-5-(dicyclopropylmethyl)-7-(1-methyl-5-(4-methyl-1,4-diazepan-1-yl)-1H-pyrazol-3-yl)-1,5-dihydro-4H-pyrazolo[4,3-c]pyridin-4-one]
 | 100 |  |  | 102 |  | 101 | 101 | CC1CCCCC1n1cc(-c2cc(N3CCOCC3)n(C)n2)c2[nH]nc(N)c2c1=O (stereo not drawn) [Example 152, 3-amino-5-(2-methylcyclohexyl)-7-(1-methyl-5-(morpholin-4-yl)-1H-pyrazol-3-yl)-1,5-dihydro-4H-pyrazolo[4,3-c]pyridin-4-one]
103 | 99 | 98 | 101 |  |  |  |  | CC1CCCCC1n1cc(-c2cc(N3CCOCC3)n(C)n2)c2[nH]nc(N)c2c1=O (stereo not drawn) [Example 153, 3-amino-5-(2-methylcyclohexyl)-7-(1-methyl-5-(morpholin-4-yl)-1H-pyrazol-3-yl)-1,5-dihydro-4H-pyrazolo[4,3-c]pyridin-4-one]

Compound | TYK2 enzyme inhibitory activity (%, 1 μM) (TYK2) [%] | JAK1 enzyme inhibitory activity (%, 1 μM) (JAK1) [%] | JAK2 enzyme inhibitory activity (%, 1 μM) (JAK2) [%] | JAK3 enzyme inhibitory activity (%, 1 μM) (JAK3) [%] | inhibition at 1 µM (TYK2) [%] | inhibition at 1 µM (JAK1) [%] | inhibition at 1 µM (JAK2) [%] | inhibition at 1 µM (JAK3) [%]
Cn1nc(-c2cn(C(C3CC3)C3CC3)c(=O)c3c(N)n[nH]c23)cc1N1C2CCC1COC2 [Example 151, 3-amino-5-(dicyclopropylmethyl)-7-(1-methyl-5-(3-oxa-8-azabicyclo[3.2.1]oct-8-yl)-1H-pyrazol-3-yl)-1,5-dihydro-4H-pyrazolo[4,3-c]pyridin-4-one] |  |  |  |  | 102 | 99 | 100 | 101

From patent publication US9637483B2, “Heterocyclic compound” (TAKEDA PHARMACEUTICAL COMPANY LIMITED, priority 2013, dated 2017)
